Calls of active or inactive are those of the source. No cut-off for these calls is given here.
Legend:
[1] = biological target: T1, Lysosomal acid glucosylceramidase (Homo sapiens) (UniProt P04062); settings: SH-SY5Y, 1 nM
T1 sequence (whole entry): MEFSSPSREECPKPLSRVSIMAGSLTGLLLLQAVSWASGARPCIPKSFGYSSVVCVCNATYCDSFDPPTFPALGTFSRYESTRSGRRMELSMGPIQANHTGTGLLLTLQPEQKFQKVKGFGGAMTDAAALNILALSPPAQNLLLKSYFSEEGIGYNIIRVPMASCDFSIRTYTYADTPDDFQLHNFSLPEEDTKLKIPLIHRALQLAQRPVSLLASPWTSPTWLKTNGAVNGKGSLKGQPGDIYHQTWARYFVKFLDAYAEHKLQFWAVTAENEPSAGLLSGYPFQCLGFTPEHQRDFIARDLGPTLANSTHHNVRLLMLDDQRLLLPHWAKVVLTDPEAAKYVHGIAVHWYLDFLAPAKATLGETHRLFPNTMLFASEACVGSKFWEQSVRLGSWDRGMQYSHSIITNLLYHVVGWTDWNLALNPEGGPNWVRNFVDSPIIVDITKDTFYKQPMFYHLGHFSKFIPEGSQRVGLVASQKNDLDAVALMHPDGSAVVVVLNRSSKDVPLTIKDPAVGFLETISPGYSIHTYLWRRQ

Beta-glucosidase = biological target: T2, Beta-glucosidase (Homo sapiens, UniProt Q9HCG7)
T2 sequence (Q9HCG7 whole entry): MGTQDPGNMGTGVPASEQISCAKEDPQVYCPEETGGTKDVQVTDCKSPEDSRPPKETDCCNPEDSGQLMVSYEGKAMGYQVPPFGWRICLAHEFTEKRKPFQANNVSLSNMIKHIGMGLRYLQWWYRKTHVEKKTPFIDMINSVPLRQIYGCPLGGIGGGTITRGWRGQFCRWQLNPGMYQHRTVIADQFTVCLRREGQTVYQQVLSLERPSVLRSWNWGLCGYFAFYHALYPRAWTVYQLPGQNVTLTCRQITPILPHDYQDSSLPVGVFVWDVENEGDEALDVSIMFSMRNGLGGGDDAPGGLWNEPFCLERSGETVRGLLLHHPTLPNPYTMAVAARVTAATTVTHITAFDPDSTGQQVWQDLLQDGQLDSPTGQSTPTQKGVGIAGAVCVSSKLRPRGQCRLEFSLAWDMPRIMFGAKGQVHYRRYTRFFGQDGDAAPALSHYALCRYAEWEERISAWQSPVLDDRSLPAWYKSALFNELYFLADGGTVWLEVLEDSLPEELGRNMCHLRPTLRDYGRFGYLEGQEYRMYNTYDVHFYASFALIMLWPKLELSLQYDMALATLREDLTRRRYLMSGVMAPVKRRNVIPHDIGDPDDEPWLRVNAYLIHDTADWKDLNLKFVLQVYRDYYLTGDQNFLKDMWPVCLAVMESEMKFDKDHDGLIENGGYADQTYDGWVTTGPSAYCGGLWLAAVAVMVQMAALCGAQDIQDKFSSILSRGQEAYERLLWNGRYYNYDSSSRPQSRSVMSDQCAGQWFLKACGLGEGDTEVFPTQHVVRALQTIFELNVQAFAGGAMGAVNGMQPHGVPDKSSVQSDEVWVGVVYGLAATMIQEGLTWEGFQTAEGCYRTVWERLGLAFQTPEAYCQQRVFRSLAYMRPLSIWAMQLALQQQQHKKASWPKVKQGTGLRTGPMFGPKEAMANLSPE

[2] = biological target: T3, Beta-glucosidase (Homo sapiens) (UniProt Q9HCG7); settings: SH-SY5Y, 1 nM
T3 sequence (whole entry): T2 sequence (Q9HCG7 whole entry)

CuFi-1 [3] = experiment: Induction of apoptosis in human CuFi1 cells incubated for 48 hrs by Muse Annexin V based cell counter assay; settings: cufi-1, 48 h
CuFi-1 [4] = experiment: Anti-inflammatory activity in human CuFi1 cells assessed as reduction in Pseudomonas aeruginosa PAO1-induced IL-8 mRNA expression level pretreated for 1 hr followed by Pseudomonas aeruginosa PAO1 challenge and measured after 4 hrs by RT-PCR analysis; type: functional, cell-based
CuFi-1 [5] = experiment: Cytotoxicity against human CuFi1 cells assessed as reduction in cell viability incubated for 48 hrs by Muse cell analyser method; type: cell-based; settings: cufi-1, 48 h
CuFi-1 [6] = experiment: Anti-inflammatory activity in human CuFi1 cells assessed as reduction in Pseudomonas aeruginosa PAO1-induced IL-8 mRNA expression level pretreated for 1 hr followed by Pseudomonas aeruginosa PAO1 challenge and measured after 4 hrs by RT-PCR analysis relative to control; type: functional
CuFi-1 [7] = experiment: Anti-inflammatory activity in human CuFi1 cells assessed as reduction in Pseudomonas aeruginosa PAO1-induced IL-8 mRNA expression level at 0.1 uM pretreated for 1 hr followed by Pseudomonas aeruginosa PAO1 challenge and measured after 4 hrs by RT-PCR analysis relative to control; type: functional; set-up: scale not given: the % may be the effect or the level left
Pseudomonas aeruginosa [8] = experiment: Anti-inflammatory activity in Pseudomonas aeruginosa PAO1 infected C57Bl/6NCr mouse assessed as reduction in amount of neutrophils recruited in BAL at 10 mg/kg, po administered via gavage pretreated for 1 to 24 hrs followed by Pseudomonas aeruginosa PAO1 challenge and measured after 6 hrs; type: functional, organism-based
[9] = Toxicity in Pseudomonas aeruginosa PAO1 infected C57Bl/6NCr mouse assessed as change in body weight at 10 to 100 mg/kg, po administered via gavage pretreated for 1 to 24 hrs followed by Pseudomonas aeruginosa PAO1 challenge and measured after 6 hrs; type: organism-based; settings: in vivo
Pseudomonas aeruginosa [10] = experiment: Anti-inflammatory activity in Pseudomonas aeruginosa PAO1 infected C57Bl/6NCr mouse assessed as reduction in bacteria detected in lungs dosed orally via gavage pretreated for 1 to 24 hrs followed by Pseudomonas aeruginosa PAO1 challenge and measured after 6 hrs; type: functional, organism-based
Pseudomonas aeruginosa [11] = experiment: Anti-inflammatory activity in Pseudomonas aeruginosa PAO1 infected C57Bl/6NCr mouse assessed as reduction in amount of bacteria recovered in airway at 10 mg/kg, po administered via gavage pretreated for 1 to 24 hrs followed by Pseudomonas aeruginosa PAO1 challenge and measured after 6 hrs; type: functional, organism-based
Pseudomonas aeruginosa [12] = experiment: Anti-inflammatory activity in Pseudomonas aeruginosa PAO1 infected C57Bl/6NCr mouse assessed as increase in alveolar macrophages in lungs at 10 mg/kg, po administered via gavage pretreated for 1 to 24 hrs followed by Pseudomonas aeruginosa PAO1 challenge and measured after 6 hrs; type: functional, organism-based
Pseudomonas aeruginosa [13] = experiment: Anti-inflammatory activity in Pseudomonas aeruginosa PAO1 infected C57Bl/6NCr mouse assessed as reduction in bacterial CFU in lungs at 10 mg/kg, po administered via gavage pretreated for 1 to 24 hrs followed by Pseudomonas aeruginosa PAO1 challenge and measured after 6 hrs; type: functional, organism-based
Pseudomonas aeruginosa [14] = experiment: Anti-inflammatory activity in Pseudomonas aeruginosa PAO1 infected C57Bl/6NCr mouse assessed as reduction in amount of neutrophils in lungs at 100 mg/kg, po administered via gavage pretreated for 1 to 24 hrs followed by Pseudomonas aeruginosa PAO1 challenge and measured after 6 hrs; type: functional, organism-based
[15] = Toxicity in Pseudomonas aeruginosa PAO1 infected C57Bl/6NCr mouse assessed as change in body weight at 100 mg/kg, po administered via gavage pretreated for 1 to 24 hrs followed by Pseudomonas aeruginosa PAO1 challenge and measured after 6 hrs; type: organism-based; settings: in vivo
Homo sapiens = species on record: Homo sapiens; experiment: Anti-inflammatory activity in human Bronchial epithelial cells assessed as reduction in Pseudomonas aeruginosa PAO1-induced IL-8 mRNA expression level at 10 nM pretreated for 1 hr followed by Pseudomonas aeruginosa PAO1 challenge and measured after 4 hrs by RT-PCR analysis relative to control; type: functional
Pseudomonas aeruginosa [16] = experiment: Anti-inflammatory activity in Pseudomonas aeruginosa PAO1 infected C57Bl/6NCr mouse assessed as reduction in bacterial CFU in BAL at 10 mg/kg, po administered via gavage pretreated for 1 to 24 hrs followed by Pseudomonas aeruginosa PAO1 challenge and measured after 6 hrs; type: functional, organism-based

CCCCCCOCCCCCN1C[C@@H](O)[C@H](O)[C@@H](O)[C@@H]1CO
Imax [1]: 65% | IC50 (Beta-glucosidase): 36700 nM | Imax [2]: 100%

CCCCCCCCCN1CC(O)C(O)C(O)C1CO (racemic)
Activity (CuFi-1 [3]): Non-Toxic | IC50 (CuFi-1 [4]): 0.6 nM | Activity (CuFi-1 [5]): Non-Toxic | Imax (CuFi-1 [6]): 12% | Activity (CuFi-1 [7]): 22%

CCCCCCOCCCCCN1CC(O)C(O)C(O)C1CO (racemic)
IC50 (Beta-glucosidase): 1 nM | Imax [2]: 100%

CCCCN1C[C@@H](O)[C@H](O)[C@@H](O)[C@@H]1CO
Activity (Pseudomonas aeruginosa [8]): Active | Activity (CuFi-1 [3]): Non-Toxic | Activity [9]: Non-Toxic | Activity (Pseudomonas aeruginosa [10]): inactive | Activity (Pseudomonas aeruginosa [11]): Active | Activity (CuFi-1 [5]): Non-Toxic | Activity (CuFi-1 [7]): <=20%

OC[C@H]1[C@H](O)[C@@H](O)[C@H](O)CN1CCCCCOCC12CC3CC(CC(C3)C1)C2
Activity (CuFi-1 [3]): Non-Toxic | Activity (CuFi-1 [5]): Non-Toxic | Activity (CuFi-1 [7]): 29%

CCCCCCOCCCCCN1C[C@H](O)[C@@H](O)[C@H](O)[C@H]1CO
Imax [1]: 100% | IC50 (Beta-glucosidase): 0.4 nM | Imax [2]: 100%

CCCCN1CC(O)C(O)C(O)C1CO (racemic)
Activity (CuFi-1 [3]): Non-Toxic | Activity (Pseudomonas aeruginosa [12]): Active | IC50 (CuFi-1 [4]): 0.95 nM | Activity (CuFi-1 [5]): Non-Toxic | Activity (Pseudomonas aeruginosa [13]): Active | Activity (Pseudomonas aeruginosa [14]): inactive | Imax (CuFi-1 [6]): 36% | Activity [15]: Non-Toxic | Activity (CuFi-1 [7]): 30% | Activity (Homo sapiens): Active | Activity (Pseudomonas aeruginosa [16]): Active

CCCCN1C[C@H](O)[C@@H](O)[C@H](O)[C@H]1CO
Activity (CuFi-1 [3]): Non-Toxic | Activity [9]: Non-Toxic | IC50 (CuFi-1 [4]): 2000 nM | Activity (CuFi-1 [5]): Non-Toxic | Imax (CuFi-1 [6]): 50%

OCC1C(O)C(O)C(O)CN1CCCCCOCC12CC3CC(CC(C3)C1)C2 (racemic)
Activity (CuFi-1 [3]): Non-Toxic | IC50 (CuFi-1 [4]): 1.84 nM | Activity (CuFi-1 [5]): Non-Toxic | Imax (CuFi-1 [6]): 29% | Activity (CuFi-1 [7]): 42% | Activity (Homo sapiens): Active

CCCCCCCCCN1C[C@H](O)[C@@H](O)[C@H](O)[C@H]1CO
Activity (CuFi-1 [3]): Non-Toxic | Activity (CuFi-1 [5]): Non-Toxic | Activity (CuFi-1 [7]): 8%

OC[C@@H]1[C@@H](O)[C@H](O)[C@@H](O)CN1CCCCCOCC12CC3CC(CC(C3)C1)C2
Activity (CuFi-1 [3]): Non-Toxic | IC50 (CuFi-1 [4]): 1.84 nM | Activity (CuFi-1 [5]): Non-Toxic

CCCCCCCCCN1C[C@@H](O)[C@H](O)[C@@H](O)[C@@H]1CO
Activity (CuFi-1 [3]): Non-Toxic | Activity (CuFi-1 [5]): Non-Toxic | Activity (CuFi-1 [7]): 16%
